How the values were obtained:
[1] = biological target: T1, Inhibitor of nuclear factor kappa-B kinase subunit beta (Homo sapiens) (UniProt O14920); test: Inhibition of full length human GST-tagged IKK2 expressed in baculovirus expression system at 10 uM by Z'-LYTE assay
T1 sequence (whole entry): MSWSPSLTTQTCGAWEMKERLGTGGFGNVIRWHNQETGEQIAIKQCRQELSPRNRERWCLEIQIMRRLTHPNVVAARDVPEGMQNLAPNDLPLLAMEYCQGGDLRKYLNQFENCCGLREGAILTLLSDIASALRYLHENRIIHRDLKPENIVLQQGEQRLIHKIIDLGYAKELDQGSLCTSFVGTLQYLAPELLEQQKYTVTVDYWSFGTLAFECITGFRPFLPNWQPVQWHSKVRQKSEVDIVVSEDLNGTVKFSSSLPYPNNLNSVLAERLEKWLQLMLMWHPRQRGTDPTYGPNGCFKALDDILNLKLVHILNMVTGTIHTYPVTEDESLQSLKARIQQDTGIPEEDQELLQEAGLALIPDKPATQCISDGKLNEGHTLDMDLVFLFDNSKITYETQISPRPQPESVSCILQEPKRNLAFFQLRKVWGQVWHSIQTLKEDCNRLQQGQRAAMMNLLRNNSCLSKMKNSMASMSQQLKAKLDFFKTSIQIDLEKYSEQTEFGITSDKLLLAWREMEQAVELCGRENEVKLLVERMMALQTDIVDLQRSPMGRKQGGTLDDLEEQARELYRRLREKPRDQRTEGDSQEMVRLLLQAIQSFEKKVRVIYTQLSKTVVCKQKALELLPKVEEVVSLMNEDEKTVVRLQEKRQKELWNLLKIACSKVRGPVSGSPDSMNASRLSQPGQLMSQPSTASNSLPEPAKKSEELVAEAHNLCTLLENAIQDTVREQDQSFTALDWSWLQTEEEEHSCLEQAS

[2] = biological target: T2, Inhibitor of nuclear factor kappa-B kinase subunit alpha (Homo sapiens) (UniProt O15111); test: Inhibition of full length human His-tagged IKK1 expressed in baculovirus expression system at 10 uM by Z'-LYTE assay
T2 sequence (whole entry): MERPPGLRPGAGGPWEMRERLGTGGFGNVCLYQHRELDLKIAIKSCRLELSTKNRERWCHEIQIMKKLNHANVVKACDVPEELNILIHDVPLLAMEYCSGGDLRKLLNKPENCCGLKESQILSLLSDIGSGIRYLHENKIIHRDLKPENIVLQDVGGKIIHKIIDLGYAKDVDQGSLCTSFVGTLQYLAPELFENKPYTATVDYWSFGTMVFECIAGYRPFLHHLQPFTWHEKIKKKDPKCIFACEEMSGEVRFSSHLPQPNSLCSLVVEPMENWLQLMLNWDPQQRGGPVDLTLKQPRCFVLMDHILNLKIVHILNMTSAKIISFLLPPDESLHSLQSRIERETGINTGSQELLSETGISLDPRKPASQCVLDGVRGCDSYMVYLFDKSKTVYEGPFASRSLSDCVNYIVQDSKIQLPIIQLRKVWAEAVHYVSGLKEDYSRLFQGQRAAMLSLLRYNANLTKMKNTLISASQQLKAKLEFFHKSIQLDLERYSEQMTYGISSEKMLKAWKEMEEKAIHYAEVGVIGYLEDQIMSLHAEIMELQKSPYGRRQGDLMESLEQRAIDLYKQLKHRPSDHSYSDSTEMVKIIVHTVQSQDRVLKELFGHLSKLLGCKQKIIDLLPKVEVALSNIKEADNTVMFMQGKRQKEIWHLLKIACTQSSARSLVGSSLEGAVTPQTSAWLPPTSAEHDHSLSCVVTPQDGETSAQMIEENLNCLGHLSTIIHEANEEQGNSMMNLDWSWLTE

[3] = test system: THP-1; test: Anti-inflammatory activity in human THP1 cells assessed as inhibition of LPS/INFgamma-induced TNFalpha production at 10 uM relative to control; format: functional

CNc1nc2cc(C)ccc2n2ncc(Br)c12
inhibition [1]: 7%
inhibition [2]: -6%

CNc1nc2ccccc2n2ncc(Br)c12
inhibition [1]: 1%
inhibition [2]: 0%

Cc1ccc2nc(NCCN)c3ncc(C)n3c2c1
inhibition [1]: 64%
inhibition [2]: 8%

CNc1nc2cc(C)ccc2n2nccc12
inhibition [1]: 4%
inhibition [2]: -4%

CNc1nc2ccccc2n2cnc(Br)c12
inhibition [1]: 10%
inhibition [2]: -5%

CNc1nccn2c(-c3ccc(OC)c(OC)c3)cnc12
inhibition [1]: -1%
inhibition [2]: -9%

CNc1nc2ccccc2n2c(C)cnc12
inhibition [1]: 5%
inhibition [2]: -3%

CNc1nccn2c(-c3ccc(O)c(O)c3)cnc12
inhibition [1]: 18%
inhibition [2]: 5%

CNc1nccn2c(Br)cnc12
inhibition [1]: 6%
inhibition [2]: 5%

CN(C)c1nc2ccccc2n2nccc12
inhibition [1]: 17%
inhibition [2]: -10%

CNc1nc2ccc(C)cc2n2ncc(Br)c12
inhibition [1]: -3%
inhibition [2]: -10%

Cc1ccc2nc(N(C)C)c3ccnn3c2c1
inhibition [1]: 1%

CNc1nc2ccc(C)cc2n2c(Br)cnc12
inhibition at 10 µM [3]: 40%

CNc1nc2ccccc2n2c(Br)ncc12
inhibition [1]: 16%
inhibition [2]: 0%

CNc1nc2ccc(C)cc2n2c(C)cnc12
inhibition at 10 µM [3]: 45%

CNc1nc2ccccc2n2c(Br)nc(Br)c12
inhibition [2]: -1%

Nc1nccn2c(Br)cnc12
inhibition [1]: 10%
inhibition [2]: 7%

Cc1ccc2c(c1)nc(N(C)C)c1ccnn12
inhibition [1]: 4%
inhibition [2]: -7%

CNc1nc2ccccc2n2nccc12
inhibition [1]: -2%
inhibition [2]: 5%

CNc1nc2ccccc2n2cncc12
inhibition [1]: 1%
inhibition [2]: 3%

CNc1nc2ccc(C)cc2n2nccc12
inhibition [1]: 19%
inhibition [2]: -9%

CNc1nccn2c(C)cnc12
inhibition [1]: -4%
inhibition [2]: -1%

COc1ccc(-c2cnc3c(N)nccn23)cc1OC
inhibition [1]: -4%
inhibition [2]: -2%

Nc1nccn2c(-c3ccc(O)c(O)c3)cnc12
inhibition [1]: -8%
inhibition [2]: 20%

— ChEMBL document CHEMBL4190291, “Imidazo[1,2-a]pyrazine, Imidazo[1,5-a]quinoxaline and Pyrazolo[1,5-a]quinoxaline derivatives as IKK1 and IKK2 inhibitors” (2017)
